The text below walks through data of patent publication US20030044399A1, “Method of treatment” (SmithKline Beecham Corporation, priority 1998, published 2003).

Like-named read-outs stand apart in the source and are kept apart here.

One assay has as its target Schisto B 2 (Schistosoma mansoni, UniProt Q95PM1). Briefly: Cysteine protease inhibition, progress curve method, schistosoma B 2. The class given is biochemical. The settings on record: 10 uM Cbz-Phe-Arg-AMC, 100 mM Na acetate pH 5.5, 5 mM cysteine. Here is the method:
(§1) Standard assay conditions for the determination of kinetic constants used 10 uM fluorogenic peptide substrate, Cbz-Phe-Arg-AMC for the cysteine proteases from Leishmania spp and Schistosoma Mansoni, Cbz-Leu-Arg-AMC for the cysteine proteases from Plasmodium falciparum and Trypanosoma brucei rhodesiensi, and Ac-Lys-Glu-Lys-Leu-Arg-AMC (4 uM final substrate concentration) for the cysteine protease from Trypoanosoma cruzi, and were determined in 100 mM Na acetate at pH 5.5 containing 5 mM cysteine. Stock substrate solutions were prepared at concentrations of […] in DMSO with 10 uM (4 uM for Ac-Lys-Glu-Lys-Leu-Arg-AMC) final substrate concentration in the assays. The final DMSO concentration was 2% and the final volume was 100 uL. All assays were conducted at ambient temperature. Product progress curves were generated over 20 to 30 minutes following formation of AMC product.
(§2) Potential inhibitors were evaluated using the progress curve method. Assays were carried out in the presence of variable concentrations of test compound. Reactions were initiated by addition of enzyme to buffered solutions of inhibitor and substrate. Data analysis was conducted according to one of two procedures depending on the appearance of the progress curves in the presence of inhibitors. For those compounds whose progress curves were linear, apparent inhibition constants (Ki,app) were calculated according to equation 1 (Brandt et al., Biochemitsry, 1989, 28, 140):
(§3) v=VmA/[Ka(1+I/Ki,app)+A] (1)
(§4) Where v is the velocity of the reaction with maximal velocity Vm, A is the concentration of substrate with Michaelis constant of Ka, and I is the concentration of inhibitor.
(§5) [AMC]=vsst+(v0−vss)[1−exp (−kobst)]/kobs (2)
(§6) Where [AMC] is the concentration of product formed over time t, v0 is the initial reaction velocity and vss is the final steady state rate. Values for kobs were then analyzed as a linear function of inhibitor concentration to generate an apparent second order rate constant (kobs/inhibitor concentration or kobs/[I]) describing the time-dependent inhibition. A complete discussion of this kinetic treatment has been fully described (Morrison et al., Adv. Enzymol. Relat. Areas Mol. Biol., 1988, 61, 201).
(§7) Exemplary inhibition data for the compounds used in the present method collected in accordance with the above-described procedure are listed in Table I.

For another assay, the target named is Schisto B 1 (Schistosoma mansoni, UniProt P25792). Briefly: Cysteine protease inhibition, progress curve method, schistosoma B 1. In kind it is biochemical. The settings on record: 10 uM Cbz-Phe-Arg-AMC, 100 mM Na acetate pH 5.5, 5 mM cysteine; read-out: Schisto B 1 Ki. Here is the method:
as §1, §2, §3, §4, §5, §6, §7

A further assay deals with Cruzain (Trypanosoma cruzi, UniProt P25779). Briefly: Cysteine protease inhibition, progress curve method, cruzain. In kind it is biochemical. The settings on record: 4 uM Ac-Lys-Glu-Lys-Leu-Arg-AMC, 100 mM Na acetate pH 5.5, 5 mM cysteine; read-out: Cruzain Ki. In a few lines: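 Buffer was 100 mM sodium acetate pH 5.5 with 5 mM cysteine and 2% DMSO, at ambient temperature; reactions started with enzyme, and AMC formation was followed for 20–30 min. Substrates: Leishmania and Schistosoma, 10 uM Cbz-Phe-Arg-AMC; falcipain, 10 uM Cbz-Leu-Arg-AMC; cruzain, 4 uM Ac-Lys-Glu-Lys-Leu-Arg-AMC. Linear curves gave Ki,app; curved ones gave kobs/[I].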

The next assay has as its target Falcipain 2 (Plasmodium falciparum, UniProt Q8I6U4). Description: Cysteine protease inhibition, progress curve method, falcipain. The settings on record: 10 uM Cbz-Leu-Arg-AMC, 100 mM Na acetate pH 5.5, 5 mM cysteine. The class given is biochemical. On the procedure:
as §1, §2, §3, §4, §5, §6, §7

The target in another assay is Rhodazain (Trypanosoma brucei rhodesiense, UniProt Q95PM0). Description: Cysteine protease inhibition, progress curve method, rhodazain. In kind it is biochemical, Trypanosoma brucei rhodesiensi. The settings on record: 10 uM Cbz-Leu-Arg-AMC, 100 mM Na acetate pH 5.5, 5 mM cysteine.
Rhodazain, sequence (Q95PM0 entry or part of it): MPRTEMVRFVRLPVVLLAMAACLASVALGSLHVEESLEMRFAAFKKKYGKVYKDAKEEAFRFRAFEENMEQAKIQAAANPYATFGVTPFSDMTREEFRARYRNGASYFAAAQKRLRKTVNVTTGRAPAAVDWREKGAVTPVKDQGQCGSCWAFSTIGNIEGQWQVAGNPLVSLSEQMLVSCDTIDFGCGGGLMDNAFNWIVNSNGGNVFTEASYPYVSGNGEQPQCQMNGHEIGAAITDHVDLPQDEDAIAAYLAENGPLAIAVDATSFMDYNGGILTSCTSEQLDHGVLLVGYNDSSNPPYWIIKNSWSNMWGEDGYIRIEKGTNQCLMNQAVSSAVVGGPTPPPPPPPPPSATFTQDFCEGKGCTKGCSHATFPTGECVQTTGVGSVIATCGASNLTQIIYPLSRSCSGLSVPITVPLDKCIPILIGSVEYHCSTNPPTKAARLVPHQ

Schisto B 2, sequence (Q95PM1 entry or part of it): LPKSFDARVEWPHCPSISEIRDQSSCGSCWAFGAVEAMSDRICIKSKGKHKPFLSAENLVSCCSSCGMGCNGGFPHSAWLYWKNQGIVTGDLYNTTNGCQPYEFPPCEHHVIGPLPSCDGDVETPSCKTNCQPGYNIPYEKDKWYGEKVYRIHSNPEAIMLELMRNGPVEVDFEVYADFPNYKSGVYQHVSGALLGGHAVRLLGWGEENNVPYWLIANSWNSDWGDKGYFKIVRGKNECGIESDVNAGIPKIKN
Schisto B 1, sequence (P25792 89-340): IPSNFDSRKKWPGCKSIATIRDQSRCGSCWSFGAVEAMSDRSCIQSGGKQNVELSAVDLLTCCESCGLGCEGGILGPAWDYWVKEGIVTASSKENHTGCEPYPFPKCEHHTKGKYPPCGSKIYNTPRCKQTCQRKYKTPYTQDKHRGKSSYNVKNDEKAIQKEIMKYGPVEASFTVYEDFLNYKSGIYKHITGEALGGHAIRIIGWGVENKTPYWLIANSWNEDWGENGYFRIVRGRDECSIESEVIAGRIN
Falcipain 2, sequence (Q8I6U4 244-484): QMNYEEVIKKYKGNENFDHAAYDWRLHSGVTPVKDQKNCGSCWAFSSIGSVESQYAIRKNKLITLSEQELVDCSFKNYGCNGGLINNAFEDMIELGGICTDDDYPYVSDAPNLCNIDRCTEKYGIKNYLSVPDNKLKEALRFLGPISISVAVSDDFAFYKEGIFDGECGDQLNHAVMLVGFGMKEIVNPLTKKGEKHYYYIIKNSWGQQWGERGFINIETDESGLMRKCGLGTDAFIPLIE
Cruzain, sequence (P25779 123-337): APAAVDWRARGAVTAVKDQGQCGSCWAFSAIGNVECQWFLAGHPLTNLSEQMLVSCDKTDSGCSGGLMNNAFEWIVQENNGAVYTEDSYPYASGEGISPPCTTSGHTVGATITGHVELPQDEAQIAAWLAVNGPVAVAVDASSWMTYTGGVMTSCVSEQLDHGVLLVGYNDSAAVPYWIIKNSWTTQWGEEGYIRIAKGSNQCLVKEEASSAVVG

Turning to `CC(C)C[C@@H](NC(=O)c1cc2cc(OCCN3CCOCC3)ccc2o1)C(=O)NC1CCCN(C(=O)Cc2cccc(-c3ccccn3)c2)CC1=O` (single isomer, unassigned) [Example 4], the inhibition constant Ki was 320 nM at Schisto B 2 and 100 nM at Schisto B 1.

In the case of `CC(C)C[C@@H](NC(=O)c1ccc2c(c1)OCO2)C(=O)N[C@@H]1CCCN(S(=O)(=O)c2ccc(F)cc2)CC1=O` (stereo in doubt) [Example 67, Benzo[1,3]dioxole-5-carboxylic acid {(S)-1-[1-(4-fluoro-benzenesulfonyl)-3-oxo-azepan-4-ylcarbamoyl]-3methyl-butyl}-amide], the results for the Ki at Cruzain, on Schisto B 2 and on Schisto B 1 were 11 nM, 330 nM and 45 nM, respectively.

Consider `CC(C)C[C@H](NC(=O)c1ccc2ccccc2n1)C(=O)N[C@H]1CCCN(S(=O)(=O)c2ccc(F)cc2)CC1=O` [Example 83], for which the Ki worked out at 230 nM at Schisto B 2 and 61 nM on Schisto B 1.

Consider `CC(C)C[C@H](NC(=O)c1cc2ccccc2n1C)C(=O)N[C@H]1CCCN(S(=O)(=O)c2ccc(F)cc2)CC1=O` [Example 84], for which the Ki at Schisto B 2 was found to be 1100 nM; at Schisto B 1 it was 160 nM.

Consider `COc1ccc2oc(C(=O)N[C@@H](CC(C)C)C(=O)N[C@H]3CCCN(S(=O)(=O)c4ccc(F)cc4)CC3=O)cc2c1` [Example 85], for which the results for the Ki at Schisto B 2 and at Schisto B 1 were 130 nM and 45 nM, respectively.

With `CC(C)C[C@H](NC(=O)c1cc2ccccc2o1)C(=O)N[C@H]1CCCN(S(=O)(=O)c2cccc(Cl)c2)CC1=O` [Example 88, Benzofuran-2-carboxylic acid-{(S)-1-[1-(3-chloro-benzenesulfonyl)-3-oxo-azepan-4ylcarbamoyl]-3-methyl-butyl}-amide], the Ki at Schisto B 2 came to 140 nM; on Schisto B 1, 77 nM.

With `CC(C)CC(NC(=O)c1cc2ccccc2o1)C(=O)N[C@@H]1CCCN(S(=O)(=O)c2ccc(F)cc2)CC1=O` (some centres unmarked) [Example 109], the Ki on Schisto B 2 stood at 120 nM; at Schisto B 1, 31 nM.

`Cc1c(C(=O)N[C@@H](CC(C)C)C(=O)N[C@H]2CCCN(S(=O)(=O)c3ccc(Cl)cc3)CC2=O)oc2ccccc12` [Example 134, 3-Methyl-benzofuran-2-carboxylic acid-{(S)-1-[1-(4-chloro-benzenesulfonyl)-3-oxo-azepan-4-ylcarbamoyl]-3-methyl-butyl}-amide]: the figures for the Ki at Schisto B 2 and on Schisto B 1 were 360 nM and 78 nM, respectively.

As to `COc1cccc(S(=O)(=O)N2CCC[C@H](NC(=O)[C@H](CC(C)C)NC(=O)c3oc4ccccc4c3C)C(=O)C2)c1` [Example 139, 3-Methyl-benzofuran-2-carboxylic acid-{(S)-1-[1-(3-methoxy-benzenesulfonyl)-3-oxo-azepan-4-ylcarbamoyl]-3-methyl-butyl}-amide], the Ki at Schisto B 2 came to 230 nM; at Schisto B 1 it was 64 nM.

`COc1cccc(S(=O)(=O)N2CCC[C@H](NC(=O)[C@H](CC(C)C)NC(=O)c3cc4ccccc4s3)C(=O)C2)c1` [Example 140, Benzo[b]thiophene-2-carboxylic acid-{(S)-1-[1-(3-methoxy-benzenesulfonyl)-3-oxo-azepan-4-ylcarbamoyl]-3-methyl-butyl}-amide]: the inhibitory constant (Ki) on Schisto B 2 stood at 280 nM; on Schisto B 1, 68 nM.

For `COc1cccc(S(=O)(=O)N2CCC[C@H](NC(=O)[C@H](CC(C)C)NC(=O)c3cc4ccccc4n3C)C(=O)C2)c1` [Example 141, 1-Methyl-1H-indole-2-carboxylic acid-{(S)-1-[1-(3-methoxy-benzenesulfonyl)-3-oxo-azepan-4-ylcarbamoyl]-3-methyl-butyl}-amide], the figures for the Ki at Schisto B 2 and on Schisto B 1 were 400 nM and 50 nM, respectively.

Take `COc1cccc2cc(C(=O)N[C@@H](CC(C)C)C(=O)N[C@@H]3CCCN(S(=O)(=O)c4cccs4)CC3=O)oc12` [Example 144, 7-Methoxy-benzofuran-2-carboxylic acid-{(S)-3-methyl-1-[3-oxo-1-(thiophene-2-sulfonyl)-azepan-4-ylcarbamoyl]-butyl}-amide]: the Ki is 5.5 nM at Cruzain, 6.2 nM on Falcipain 2 and 8.6 nM at Rhodazain (Rhodazain Ki (nM)).

On to `COc1cccc2cc(C(=O)N[C@H](CC(C)C)C(=O)N[C@H]3CCCN(S(=O)(=O)c4ccccn4)CC3=O)oc12` [Example 164], for which the Ki was 4.2 nM on Cruzain, 2.2 nM at Falcipain 2 and 5.1 nM on Rhodazain (Rhodazain Ki (nM)).

Turning to `CC(C)C[C@H](NC(=O)c1cccc2ncccc12)C(=O)N[C@H]1CCCN(S(=O)(=O)c2ccccn2)CC1=O` [Example 185, Quinoline-5-carboxylic acid {(S)-3-methyl-1-[3-oxo-1-(pyridine-2-sulfonyl)-azepan-4-ylcarbamoyl]-butyl}-amide], the figures for the inhibitory constant (Ki) at Cruzain, on Falcipain 2 and on Rhodazain (Rhodazain Ki (nM)) were 1.8 nM, 4.4 nM and 2.1 nM, respectively.

Regarding `CC(C)C[C@H](NC(=O)c1cc2ccccc2s1)C(=O)N[C@H]1C[C@H](C)CN(S(=O)(=O)c2ccccn2)CC1=O` [Example 197, Benzo[b]thiophene-2-carboxylic acid {(S)-3-methyl-1-[6-methyl-3-oxo-1-(pyridine-2-sulfonyl)-azepan-4-ylcarbamoyl]-butyl}-amide], the inhibition constant Ki at Cruzain turned out to be 3.1 nM; at Falcipain 2, 4.1 nM; at Rhodazain (Rhodazain Ki (nM)), 2.3 nM.

Consider `COc1ccc2oc(C(=O)N[C@@H](CC(C)C)C(=O)N[C@H]3C[C@H](C)CN(S(=O)(=O)c4ccccn4)CC3=O)cc2c1` [Example 198, 5-Methoxy-benzofuran-2-carboxylic acid {(S)-3-methyl-1-[6-methyl-3-oxo-1-(pyridine-2-sulfonyll)-azepan-4-ylcarbamoyl]-butyl}-amide], for which the figures for the Ki on Cruzain, on Falcipain 2 and on Rhodazain (Rhodazain Ki (nM)) were 1.9 nM, 3.6 nM and 1.6 nM, respectively.

For `Cc1c(C(=O)N[C@@H](CC(C)C)C(=O)N[C@H]2C[C@H](C)CN(S(=O)(=O)c3ccccn3)CC2=O)oc2ccccc12` [Example 199, 3-Methyl-benzofuran-2-carboxylic acid {(S)-3-methyl-1-[6-methyl-3-oxo-1-(pyridine-2-sulfonyl)-azepan-4-ylcarbamoyl]-butyl}-amide], the Ki at Cruzain came to 2.3 nM; on Falcipain 2, 5.6 nM; at Rhodazain (Rhodazain Ki (nM)), 2 nM.

Turning to `CC(C)C[C@H](NC(=O)c1cc2sccc2s1)C(=O)N[C@H]1CCCN(C(=O)Nc2ccccc2F)CC1=O` [Example 218, Thieno[3,2-b]thiophene-2-carboxylic acid {(S)-1-[1-(2-fluoro-phenylcarbamoyl)-3-oxo-azepan-4-ylcarbamoyl]-3-methyl-butyl}-amide], the figures for the Ki at Cruzain, on Falcipain 2 and on Rhodazain (Rhodazain Ki (nM)) were 5.4 nM, 3.1 nM and 2.3 nM, respectively.

With `Cc1csc(C(=O)NC(CC(C)C)C(=O)N[C@H]2CCCN(C(=O)Nc3ccccc3F)CC2=O)c1` (stereo partly drawn) [Example 220, 4-Methyl-2-carboxylic acid {(S)-1-[-(2-fluoro-phenylcarbamoyl)-3-oxo-azepan-4-ylcarbamoyl]-3-methyl-butyl}-amide], the results for the Ki at Cruzain, on Falcipain 2 and on Rhodazain (Rhodazain Ki (nM)) were 8.7 nM, 3.9 nM and 4.2 nM, respectively.

For `COc1ccc2oc(C(=O)N[C@@H](CC(C)C)C(=O)N[C@H]3CCCN(C(=O)Nc4ccccc4F)CC3=O)cc2c1` [Example 221, 5-Methoxy-benzofuran-2-carboxylic acid {(S)-1-[1-(2-fluoro-phenylcarbamoyl)-3-oxo-azepan-4-ylcarbamoyl]-3-methyl-butyl}-amide], the Ki on Cruzain came out at 3 nM; at Falcipain 2 it was 2 nM; on Rhodazain (Rhodazain Ki (nM)), 1.2 nM.

“Benzofblthiophene-2-carboxylic acid {(S)-3-methyl-1-[3-oxo-1-(1-oxy-pyridine-2-sulfonyl)-azepan-4-ylcarbamoyl]-butyl}amide [Example 51]”: the Ki on Cruzain is 6.4 nM; at Falcipain 2, 5.1 nM; on Rhodazain (read-out: Rhodazain Ki), 3 nM.
